Experimental findings from US20020155088A1, “Tumor treatment by using oligoaniline” (priority 2001, published 2002) are described below.

Series [1] has as its system Fibrosarcoma cells (CCRC60037) and sarcoma 180 cells. The series can be described thus: In vitro irradiation-induced cytotoxicity based on tumor cell viability (MTT/formazon). As for the experimental part: An in vitro inhibition assay can be performed to preliminarily evaluate an oligoaniline's ability to inhibit the growth of tumor cells. For example, an oligoaniline solution is added to a pre-incubated cell suspension. Subsequently, the cell suspension is irradiated with fluorescence light, followed by further incubation. A 3-(4,5-dimethylthiazol-2-yl)-2,5-diphenyl-tetrazolium bromide solution is then added to the cell suspension to react with mitochrondrial dehydrogenase to form formazon, which is extracted with dimethyl sulfoxide (DMSO). The DMSO extract solution is immediately used for optical measurement to determine the formazon quantity, which correlates with the quantity of dehydrogenase or the relative number of the living cells.
Two types of tumor cells used in this study were prepared as follows: Fibrosarcoma cells (CCRC60037) and sarcoma 180 cells (obtained form Biochemical Institute of Chung Shan Medical and Dental College, Taiwan) were maintained and cultured in an cc-modified eagle medium (MEM) containing L-glutamine and phenol red, 10% fetal bovine serum, and antibiotics (100 units/mL of penicillin G and 100 μg/mL streptomycin sulfate). The cells were incubated in the dark in 95% humidified air plus 5% CO2, harvested by treatment with trypsin-EDTA, and then suspended in an α-MEM at the concentration of 1×10^4 cells/mL.
The cell suspension thus obtained was placed in wells of a 24-well plate (500 μL each) and pre-incubated at 37° C. for 24 hours. A16S solutions of various concentrations (0-10 μM) were then added to the wells (500 μL each). The wells were irradiated with fluorescence light (27 watts) for 0-60 minutes. The distance between the plate cover and the light source was 5-6 cm. After irradiation, the cells were further incubated for 48 hours. A solution of 3-(4,5-dimethylthiazol-2-yl)-2,5-diphenyl-tetrazolium bromide (0.5% in PBS; 100 μL each) was then added to each cell suspension, thereby causing the cells to produce formazon. After incubation at 37° C. for 3 hours, the suspension medium was discarded. Formazon formed in the cells from each well was extracted with DMSO (1.0 mL), and the DMSO extract solution was immediately measured for absorbance at […]. The absorbance directly correlated with the quantity of formazon, and thus with the quantity of dehydrogenase enzyme or the relative number of the living cells (i.e., viability). […] A maximal photodynamic cytotoxicity efficacy of >90% was obtained at an A16S concentration of 5.0-10.0 μM and an irradiation time of 60 minutes.

The test system of series [2] is Murine sarcoma 180 cells (subcutaneous tumors). The series can be described thus: In vivo photodynamic therapy study in tumor-bearing mice. Also on record: species or system male ICR mice. The settings on record: 10 mg/kg intraperitoneal. From the text: Oligoanilines that show efficacy in preliminary studies can be further tested to confirm their efficacy by an in vivo assay on tumor-bearing mice. For example, see Chiang, et al. Proc. Electrochem. Soc., 1999, 99-12, 238-249. More specifically, a tumor-bearing mouse can be first administered with an oligoaniline to be tested in PBS close to the tumor site. The mouse is then kept in the dark while the oligoaniline is circulated to the tumor site. The tumor site is exposed by removing the hair on and around it, and then irradiated with a laser beam or other light source. After the irradiation, the growth of the tumor in the mouse is examined at different time intervals. The inhibitory effect can be evaluated by measuring the body weights of the mouse and the volumes of the tumor. After the mouse is sacrificed, the final body weight, the weights of various organs, and the final volume and weight of the tumor are measured; and blood is collected for biochemistry and hematology analyses. The data are evaluated used to determine the photodynamic therapeutic and other effects. […]
The mice in groups (1) and (2) were subsequently kept in the dark for 24 hours, and then anesthetized with avertine (0.3 mL/head). […] After the irradiation, the body weights and tumor volumes of the mice were measured every 5 days for 30 days. […]

Series [3] relates to ferricytochrome C. The series can be described thus: In vitro irradiation-induced superoxide generation (ferricytochrome C reduction). The class given is biochemical. The settings on record: 25 μM A16S aqueous solution, fluorescence light 27 watts, irradiation time 0, 30, 60, 90 minutes. Here is the method: The mixture thus obtained was added into wells of a 24-well plate, and exposed to fluorescence light source (27 watts) for 0-90 minutes. The distance between the plate cover and the light source was 5-6 cm. The reduction extent of ferricytochrome C was evaluated based on its absorbance at 550 nm, which corresponded to the increase of the quantity of reduced ferrocytochrome C.

As to Sulfobutylated Hexadecaaniline [A16S], the cell viability result in series [1] (A16S 0-10 μM, fluorescence light 27 watts, irradiation 0-60 minutes, 48 hours further incubation) is “decreased as the A16S dosage and irradiation time increased”. Further, the “maximal photodynamic cytotoxicity efficacy” value in series [1] (A16S 5.0-10.0 μM, irradiation time 60 minutes) is on record as > 90%. In addition, in series [1] (irradiation time 60 minutes), the IC50 (usually the point on the concentration scale where inhibition reaches its midpoint) turned out to be 1 µM. In series [1] (irradiation time 60 minutes, A16S concentration increased from 0 to 2.5 μM), the viable cells entry is “a sharp loss of viable cells was observed”. In series [1] (no irradiation, highest A16S concentration 10.0 μM), the “cytotoxicity in the absence of light irradiation” value is “no cytotoxicity was observed”. Besides, the “average tumor weight relative to tumor control group” value in series [2] (laser 633 nm 100 J/cm^2, day 30) is “about 40%”. Besides, in series [2] (laser 633 nm 100 J/cm^2, entire 30 day study period), the “tumor growth rates versus tumor control group” value is recorded as “much lower”. For the same substance, in series [3], the “amount of superoxide free radicals (ferrocytochrome C absorbance at 550 nm)” value is “increased as the irradiation time increased”.
